# Results from US9125849B2, “TOMM34 peptides and vaccines including the same” (ONCOTHERAPY SCIENCE, INC., priority 2010, dated 2015).
# Non-standard residues stand in square brackets, D forms with d. No end group written: not given here.
# Assays:
# peptide-pulsed T2 cells [1] = assay: In vitro CTL induction, IFN-gamma ELISPOT assay; assay type: cell-based, human; details: CTLs induced with peptide-pulsed DCs from HLA-A*0201 positive donor, vs target cells not pulsed with peptide
# Text: Monocyte-derived dendritic cells (DCs) were used as antigen-presenting cells to induce cytotoxic T lymphocyte (CTL) responses against peptides presented on human leukocyte antigen (HLA). DCs were generated in vitro as described elsewhere (Nakahara S et al., Cancer Res 2003 Jul. 15, 63(14): 4112-8). Specifically, peripheral blood mononuclear cells isolated from a normal volunteer (HLA-A*0201 positive) by Ficoll-Paque plus (Pharmacia) solution were separated by adherence to a plastic tissue culture dish (Becton Dickinson) so as to enrich them as the monocyte fraction. The monocyte-enriched population was cultured in the presence of 1000 U/ml of granulocyte-macrophage colony-stimulating factor (R&D System) and 1000 U/ml of interleukin (IL)-4 (R&D System) in AIM-V Medium (Invitrogen) containing 2% heat-inactivated autologous serum (AS). After 7 days of culture, the cytokine-induced DCs were pulsed with 20 micro-g/ml of each of the synthesized peptides in the presence of 3 micro-g/ml of beta 2-microglobulin for 3 hr at 37 degrees C. in AIM-V Medium. The generated cells appeared to express DC-associated molecules, such as CD80, CD83, CD86 and HLA class II, on their cell surfaces (data not shown). These peptide-pulsed DCs were then inactivated by X ray-irradiated (20 Gy) and mixed at a 1:20 ratio with autologous CD8+ T cells, obtained by positive selection with CD8 Positive Isolation Kit (Dynal). These cultures were set up in 48-well plates (Corning); each well contained 1.5×10^4 peptide-pulsed DCs, 3×10^5 CD8+ T cells and 10 ng/ml of IL-7 (R&D System) in 0.5 ml of AIM-V/2% AS medium. Three days later, these cultures were supplemented with IL-2 (CHIRON) to a final concentration of 20 IU/ml. On day 7 and 14, the T cells were further stimulated with the autologous peptide-pulsed DCs. The DCs were prepared each time by the same way described above. CTL was tested against peptide-pulsed T2 cells after the 3rd round of peptide stimulation on day 21 (Tanaka H et al., Br J Cancer 2001 Jan. 5, 84(1): 94-9; Umano Y et al., Br J Cancer 2001 Apr. 20, 84(8): 1052-7; Uchida N et al., Clin Cancer Res 2004 Dec. 15, 10(24): 8577-86; Suda T et al., Cancer Sci 2006 May, 97(5): 411-9; Watanabe T et al., Cancer Sci 2005 August, 96(8): 498-506).
# (§1) Peptide-pulsed T2 (1×10^4/well) was prepared as stimulator cells. Cultured cells in 48 wells were used as responder cells. IFN-gamma ELISPOT assay and IFN-gamma ELISA assay were performed under manufacture procedure.
# peptide-pulsed T2 cells [2] = assay: CTL clone activity, IFN-gamma ELISA; assay type: cell-based, human; details: CTL clone established by limiting dilution from the CTL line; target cells pulsed with peptide; listed as TOMM34-A02-9-30
# Protocol: The dilutions were made to have 0.3, 1, and 3 CTLs/well in 96 round-bottomed micro titer plate (Nalge Nunc International). CTLs were cultured with 1×10^4 cells/well of 2 kinds of human B-lymphoblastoid cell lines, 30 ng/ml of anti-CD3 antibody, and 125 U/ml of IL-2 in a total of […] of AIM-V Medium containing 5% AS. 50 micro-1/well of IL-2 were added to the medium 10 days later so to reach a final concentration of 125 U/ml IL-2. CTL activity was tested on the 14th day, and CTL clones were expanded using the same method as described above (Uchida N et al., Clin Cancer Res 2004 Dec. 15, 10(24): 8577-86; Suda T et al., Cancer Sci 2006 May, 97(5): 411-9; Watanabe T et al., Cancer Sci 2005 August, 96(8): 498-506).
# as §1
# [3] = test system: COS7 cells transfected with both TOMM34 and HLA-A*0201; assay: Specific CTL activity against target cells expressing TOMM34 and HLA-A*0201; assay type: cell-based, African green monkey; details: COS7 cells expressing both TOMM34 and HLA-A*0201; listed as TOMM34-A02-9-30
# Text: (§2) The cDNA encoding an open reading frame of target genes or HLA-A*0201 was amplified by PCR. The PCR-amplified product was cloned into expression vector. The plasmids were transfected into COS7, which is the target genes and HLA-A*0201-null cell line, using lipofectamine 2000 (Invitrogen) according to the manufacturer's recommended procedures. After 2 days from transfection, the transfected cells were harvested with versene (Invitrogen) and used as the stimulator cells (5×10^4 cells/well) for CTL activity assay.
# (§3) The established CTL line raised against TOMM34-A02-9-30 (SEQ ID NO: 1) peptide was examined for the ability to recognize target cells that express TOMM34 and HLA-A*0201 molecule. COS7 cells transfected with both the full length of TOMM34 and HLA-A*0201 gene (a specific model for the target cells that express TOMM34 and HLA-A*0201 gene) were prepared as stimulator cells, and COS7 cells transfected with either full length of TOMM34 or HLA-A*0201 were used as the controls.
# peptide-pulsed T2 cells [4] = assay: CTL line activity, IFN-gamma ELISA; assay type: cell-based, human; details: CTL line stimulated with peptide; target cells pulsed with peptide vs without peptide pulse
# Protocol: CTLs were expanded in culture using the method similar to the one described by Riddell et al. (Walter E A et al., N Engl J Med 1995 Oct. 19, 333(16): 1038-44; Riddell S R et al., Nat Med 1996 February, 2(2): 216-23). A total of 5×10^4 CTLs were suspended in 25 ml of AIM-V/5% AS medium with 2 kinds of human B-lymphoblastoid cell lines, inactivated by Mitomycin C, in the presence of 40 ng/ml of anti-CD3 monoclonal antibody (Pharmingen). One day after initiating the cultures, 120 IU/ml of IL-2 were added to the cultures. The cultures were fed with fresh AIM-V/5% AS medium containing 30 IU/ml of IL-2 on days 5, 8 and 11 (Tanaka H et al., Br J Cancer 2001 Jan. 5, 84(1): 94-9; Umano Y et al., Br J Cancer 2001 Apr. 20, 84(8): 1052-7; Uchida N et al., Clin Cancer Res 2004 Dec. 15, 10(24): 8577-86; Suda T et al., Cancer Sci 2006 May, 97(5): 411-9; Watanabe T et al., Cancer Sci 2005 August, 96(8): 498-506).
# as §1
# [5] = test system: COS7 cells transfected with either full length of TOMM34 or HLA-A*0201; assay: Specific CTL activity against control target cells; assay type: cell-based, African green monkey; details: control COS7 cells expressing either HLA-A*0201 or TOMM34
# Text: as §2, §3
substance,measurement,setting,value
ALYGrALRVL (ALYG[code r]ALRVL; not fully specified; printed as ALYGrALRVL) [SEQ ID NO: 31],peptide specific CTL activity (IFN-gamma production) by IFN-gamma ELISPOT,peptide-pulsed T2 cells [1],potent IFN-gamma production
KLPSiPLVPV (KLPS[code i]PLVPV; not fully specified; printed as KLPSiPLVPV) [SEQ ID NO: 21],peptide specific CTL activity (IFN-gamma production) by IFN-gamma ELISPOT,peptide-pulsed T2 cells [1]; listed as TOMM34-A02-10-143,specific IFN-gamma production was not observed
ALYGRALRV [SEQ ID NO: 1],IFN-gamma production of the CTL clone by IFN-gamma ELISA,peptide-pulsed T2 cells [2],potent IFN-gamma production
same,peptide specific CTL activity (IFN-gamma production) by IFN-gamma ELISPOT,peptide-pulsed T2 cells [1],potent IFN-gamma production
same,specific CTL activity of the CTL line,[3],potent CTL activity
same,IFN-gamma production of the CTL line by IFN-gamma ELISA,peptide-pulsed T2 cells [4],potent IFN-gamma production
same,specific CTL activity of the CTL line,[5],no significant specific CTL activity was detected
LLCSNLESA [SEQ ID NO: 5],peptide specific CTL activity (IFN-gamma production) by IFN-gamma ELISPOT,peptide-pulsed T2 cells [1],potent IFN-gamma production
LLCSnLESAT (LLCS[code n]LESAT; not fully specified; printed as LLCSnLESAT) [SEQ ID NO: 32],peptide specific CTL activity (IFN-gamma production) by IFN-gamma ELISPOT,peptide-pulsed T2 cells [1],potent IFN-gamma production
